Where two headings read alike, the source gives them in different places. Bridge positions count the residues as written; N and C are the ends. Peptide text beside a SMILES is read from it.
Experiments:
KLK5 = target: T1, KLK5 (Homo sapiens, UniProt Q9Y337); experiment: Protease activity assay: inhibition of recombinant KLK5 (Boc-VPR-AMC substrate); assay type: biochemical
T1 construct: purchased R&D Systems 1108-SE
T1 sequence (Q9Y337 23-293): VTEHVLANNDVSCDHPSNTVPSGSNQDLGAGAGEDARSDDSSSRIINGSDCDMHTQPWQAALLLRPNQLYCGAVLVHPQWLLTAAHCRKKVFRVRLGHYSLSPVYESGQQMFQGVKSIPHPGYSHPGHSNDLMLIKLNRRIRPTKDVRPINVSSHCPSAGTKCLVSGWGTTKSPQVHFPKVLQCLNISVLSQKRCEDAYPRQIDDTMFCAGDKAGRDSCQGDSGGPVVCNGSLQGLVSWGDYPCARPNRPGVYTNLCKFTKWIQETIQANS
Procedure: Inhibitory activity against KLK5 was evaluated using the fluorogenic substrate Boc-VPR-AMC for KLK5 (Table ). […] The P1–P1′ reactive site (Arg5 to Ser6) is critical for inhibitor binding, with the P1′ position contributing up to 50% of the total association energy. , The conserved serine at P1′ in Bowman-Birk inhibitors (BBIs) is essential for function. […] Preservation of serine in the P1′ position restored inhibitory activity seen in 5 and 6. Preserving the native serine restored efficacy to the nanomolar range (5: 31 ± 7 nM; 6: 114 ± 11 nM).
Methods for biological experiment
SFTI analogues were created by individual amino acid substitutions in PYMOL (Python Molecular Graphics System) using the existing solution NMR structure of native SFTI - 1 (1JBL) found in the RCSB (Research Collaboratory for Structural Bioinformatics) database. Residues of 2 were mutated as follows: L5R, I10H, and F12W with conserved SFTI-1 backbone structure. Other SFTI based analogues were further modified using PYMOL. Currently, there are no SFTI-1 and Kallikrein 5 co-crystal structures found in the RCSB database. Superimposing the existing crystal structure of SFTI-1 and Trypsin complex (4XOJ) with Kallikrein 5 crystal structure (2PSX) was performed with PYMOL. Ab-initio docking between KLK5 and 2 were performed with HADDOCK 2.4 1, 2, with binding active site parameter set to Arg2, Cys3, Thr4, Arg5, Ser6 for 2 and Ser195, His57, and Asp102 for KLK5 catalytic triad. PRODIGY 3-5, set at 25 °C, was used to predict dissociation constant and binding interactions of docked clusters. Structural visualization and alignment were performed with PYMOL 6, and comparative sequence analysis was performed with MEGA11 7.
A fluorescence spectrometer using SpectraMax® i3x plate reader (Molecular Devices, United States) was used to measure the relative fluorescence unit (RFU) on a 96-well black microplate (Grenier Bio-one, cat no. 655074). The wavelengths were set to 360/460 nm (excitation/emission) for the substrate Boc-VPR-AMC (Bachem AG, cat no. 4003460) and 320/405nm for the substrate Mca-RPKPVE-Nval-WRK(Dnp)-NH2 Fluorogenic MMP Substrate (R&D Systems Biotechne, cat no.ES002). The Boc-VPR-AMC stock solution was prepared by dissolving the solid form in dimethyl sulfoxide to 100 mM. Mca-RPKPVE-Nval-WRK(Dnp)-NH2 fluorogenic MMP Substrate is supplied as stock solution at 10.0 mg/mL in dimethyl sulfoxide. Boc-VPR-AMC was used as a substrate for KLK5, 8 and 14. Mca-RPKPVE-Nval-WRK(Dnp)-NH2 was used as a substrate for KLK7. The ligand-only solution serves as a negative control (minimum RFU, 100% inhibition), and enzyme-only was served as positive (maximum RFU, 0% inhibition). The activities of proteases were measured and readout against the standard curve made in serial dilutions of tested recombinant KLKs, ranging from 0nM to 60nM. Each assay was done in triplicates and repeated at least for three times […]
Assessment of analogue mediated inhibition of KLK5, KLK7, KLK8, and KLK14 […]
Recombinant KLK5 (R&D Systems, cat no. 1108-SE) was diluted to a final concentration of 10 nM in 1X PBS (pH 8.0). KLK5 was pre -incubated on ice for 1 hour with serial dilutions of SFTI-derived analogues to assess inhibitory activity. After incubation, 20 µL of each mixture was transferred to we lls of a 96-well microplate in triplicates. The enzymatic reaction was initiated by adding 100 µL of Boc -VPR-AMC substrate (final concentration 100 µM) to each well. Fluorescence (RFU) was measured using a SpectraMax® i3x plate reader with chamber temperature maintained at 37°C. Readings were started at 0 minutes (baseline) and another […]
Recombinant KLK7 (R&D Systems , cat no. 2624-SE) and KLK14 (R&D Systems, cat no. 2664-SE) were activated by adding 1 mM CaCl ₂ 0.05% v/v Brij-35 (Sigma, cat no. […]
incubated at 37°C for 1 hour. Reactions were stopped by adding EDTA to a final concentration of 50 mM (Sigma, cat no. EDS-100G) KLK8 (catalytic domain only; R&D Systems, cat no. 2025-SE-010) was activated separately with 11 nM lysyl […]

[1] = amide bond, 42-membered ring, then NH4HCO3 air oxidation, 2 steps
KLK14 = target: T2, KLK14 (UniProt Q9P0G3); experiment: enzyme inhibition assay (fluorogenic substrate); selectivity: inhibition of KLK7, KLK8 or KLK14 activity by the peptide, n = 3; substrates and conditions in the Supporting Information
T2 sequence (Q9P0G3 41-267, species assumed, looked up): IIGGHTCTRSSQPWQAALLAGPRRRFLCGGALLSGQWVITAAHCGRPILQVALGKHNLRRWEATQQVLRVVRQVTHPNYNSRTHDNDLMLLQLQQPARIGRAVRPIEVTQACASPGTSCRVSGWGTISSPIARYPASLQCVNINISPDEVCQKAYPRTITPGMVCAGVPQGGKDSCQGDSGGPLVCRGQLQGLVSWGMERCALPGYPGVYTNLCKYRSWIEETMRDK

KLK8 = target: T3, KLK8 (UniProt O60259 33-260); experiment: as above; conditions: both partners purified
T3 construct: Kallikrein 8 (KLK8); construct and source are in the Supporting Information
T3 sequence (looked up): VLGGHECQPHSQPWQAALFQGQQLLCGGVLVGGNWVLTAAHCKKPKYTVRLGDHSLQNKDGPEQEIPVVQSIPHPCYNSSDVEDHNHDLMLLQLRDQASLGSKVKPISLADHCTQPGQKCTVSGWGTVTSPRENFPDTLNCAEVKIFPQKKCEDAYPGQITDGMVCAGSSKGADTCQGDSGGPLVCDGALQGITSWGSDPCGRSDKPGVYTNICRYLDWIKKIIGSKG

KLK7 = KLK7 (Homo sapiens, UniProt P49862); experiment: as above
[2] = target: Kallikrein-related peptidase 5 (KLK5) (UniProt Q9Y337 23-293); experiment: enzyme inhibition assay (fluorogenic substrate); inhibition of KLK5 activity by the peptide, fluorogenic substrate Boc-VPR-AMC, n = 3; conditions in the Supporting Information; conditions: both partners purified
[3] = MESNa/TCEP (N-to-S acyl shift, NCL), 0.1 M sodium phosphate pH 5.8, 50.0 °C
[4] = NaNO2, MPAA (NCL), TCEP, 6 M guanidinium chloride buffer, 1.0 mM, 25.0 °C

## N=C(N)NCCC[C@@H]1NC(=O)[C@H](Cc2c[nH]cn2)NC(=O)[C@@H]2CSSC[C@H](NC(=O)[C@H](CCC(=O)O)NC(=O)[C@@H]3CCCN3C(=O)[C@@H]3CCCN3C(=O)[C@H](Cc3ccc(O)cc3)NC(=O)[C@H](CO)NC1=O)C(=O)N[C@@H](Cc1c[nH]c3ccccc13)C(=O)N1CCC[C@H]1C(=O)N[C@@H](CC(N)=O)C(=O)NCC(=O)N[C@@H](Cc1ccccc1)C(=O)N2 [compound 8]
KLK5; ratio of IC50 values
  increase in KLK5 inhibitory potency (IC50) compared to 2: 7 fold
  increase in KLK5 inhibitory potency (IC50) relative to 1: 28 fold

## GFCTRSNPPHCWPN
[1]; [3]
  ring closure, yield after HPLC: 15%

## GFCTRENPPHCWPN
[1]; [3]
  ring closure, yield after HPLC: 14%

## GRCTRSIPPHCWPD
[1]; [3]
  ring closure, yield after HPLC: 18%

## GFCHREYPPHCWPN
[1]; [3]
  ring closure, yield after HPLC: 18%

## CC[C@H](C)[C@@H]1NC(=O)[C@H](CO)NC(=O)[C@H](CCCNC(=N)N)NC(=O)[C@H]([C@@H](C)O)NC(=O)[C@@H]2CSSC[C@H](NC(=O)[C@H](Cc3c[nH]cn3)NC(=O)[C@@H]3CCCN3C(=O)[C@@H]3CCCN3C1=O)C(=O)N[C@@H](Cc1c[nH]c3ccccc13)C(=O)N1CCC[C@H]1C(=O)N[C@@H](CC(=O)O)C(=O)NCC(=O)N[C@@H](CCCNC(=N)N)C(=O)N2 [compound 2] (cyclo(CTRSIPPHCWPDGR); disulfide 1-9)
KLK5; n = 3, 10 nM KLK5, Boc-VPR-AMC 100 µM, PBS pH 8.0, read-out: IC50 (n = 3)/nM for KLKs: KLK5
  IC50: 54 ± 3 nM

## GFCHRSYPPHCWPN
[1]; [3]
  ring closure, yield after HPLC: 15%

## GSCTRSSPPECWPN
[1]; [4]
  ring closure, yield after HPLC: 9%

## GFCHRSYPPECWPN
[1]; [4]
  ring closure, yield after HPLC: 6%

## GFCTRSNPPECWPN
[1]; [4]
  ring closure, yield after HPLC: 8%

## GYCTRSSPPECWPN
[1]; [4]
  ring closure, yield after HPLC: 12%

B1: SFTI analogue 9 (peptide)
peptide: cyclo(GSCTRSSPPECWPN)
modifications: disulfide 3-11 (inferred)
notes: SFTI scaffold grafted with residues of a further LEKTI domain, glutamic acid at position 10; source: synthetic peptide (hydrazide peptide, cyclised via native chemical ligation, oxidised, RP-HPLC purified)
KLK14
  IC50: > 1000 nM
KLK8
  IC50: > 1000 nM

B2: SFTI analogue 10 (peptide)
peptide: cyclo(GYCTRSSPPECWPN)
modifications: disulfide 3-11 (inferred)
notes: as for B1
KLK14
  IC50: > 1000 nM
KLK8
  IC50: > 1000 nM

## cyclo(GRCTRSIPPHCWPD) (disulfide 3-11 (inferred)) [SFTI-1 triple mutant 2, cyclo-[…]]
KLK14
  IC50: 24 nM
KLK7
  IC50: 534 nM

B3: SFTI analogue 5 (peptide)
peptide: cyclo(GFCTRSNPPHCWPN)
modifications: disulfide 3-11 (inferred)
notes: scaffold of analogue 2 grafted with residues of a LEKTI domain, serine kept at P1'; source: synthetic peptide (Fmoc solid-phase synthesis, cyclised via N to S acyl shift, oxidised, RP-HPLC purified)
[2]
  IC50: 31 ± 7 nM

B4: SFTI analogue 6 (peptide)
peptide: cyclo(GFCHRSYPPHCWPN)
modifications: disulfide 3-11 (inferred)
notes: scaffold of analogue 2 grafted with residues of a LEKTI or LEKTI-like domain, serine kept at P1'; source: synthetic peptide (Fmoc solid-phase synthesis, cyclised via N to S acyl shift, oxidised, RP-HPLC purified)
[2]
  IC50: 114 ± 11 nM

B5: SFTI-1 triple mutant 2, cyclo-[GRCTRSIPPHCWPD] (peptide)
peptide: cyclo(GRCTRSIPPHCWPD)
modifications: disulfide 3-11 (inferred)
notes: numbers count on: the mature 14-residue cyclic peptide; source: synthetic peptide (Fmoc solid-phase synthesis, cyclised via N to S acyl shift, oxidised, RP-HPLC purified)
KLK8
  IC50: 373 ± 31 nM

B6: SFTI analogue 3 (peptide)
peptide: cyclo(GFCTRENPPHCWPN)
modifications: disulfide 3-11 (inferred)
notes: scaffold of analogue 2 grafted with residues of a LEKTI domain; source: synthetic peptide (Fmoc solid-phase synthesis, cyclised via N to S acyl shift, oxidised, RP-HPLC purified)
[2]
  IC50: 1800 ± 58 nM

B7: SFTI analogue 4 (peptide)
peptide: cyclo(GFCHREYPPHCWPN)
modifications: disulfide 3-11 (inferred)
notes: scaffold of analogue 2 grafted with residues of a LEKTI or LEKTI-like domain; source: synthetic peptide (Fmoc solid-phase synthesis, cyclised via N to S acyl shift, oxidised, RP-HPLC purified)
[2]
  IC50: 1490 ± 50 nM
